Experimental data reported in article PMC11943016, “TBG096 Ameliorates Memory Deficiency in AD Mouse Model via Promoting Neurogenesis and Regulation of Hsc70/HK2/PKM2/LAMP2A Signaling Pathway” (International Journal of Molecular Sciences, 2025).

Experiments:
HFD-induced AD mice = experiment: Neurogenesis: NeuN/BrdU double staining in HFD-induced AD mice; type: in vivo; settings: 5 mg/kg, vs HFD-only
Description: In order to investigate the effect of TBG096 on promoting neuronal regeneration, animal experiments were carried out according to the method previously reported. Fifteen 4-week-old ICR male mice purchased from Zhejiang Academy of Medical Sciences (Hangzhou, China) were randomly divided into three groups, namely the (i) normal control group, (ii) HFD group, and (iii) HFD + TBG096 5 mg/kg group, and given a normal diet or high-fat diet for two months to construct the AD mouse model, respectively. After confirming the successful construction of the AD model, TBG096 was administered once a day at a dose of 5 mg/kg for 1 month, and soybean oil was used as a vehicle. BrdU was then injected into the mice at a dose of 100 mg/kg in four injections over two days, each 12 h apart. Administration of TBG096 was continued for 28 days. At the end of animal experiments, the mice were anesthetized and cardiac […]. The brains of mice were taken, fixed, and sectioned, and immunostaining was performed with NeuN and BrdU antibodies.
At the end of animal experiments, three mice in each group were taken for heart perfusion with cold PBS and 4% paraformaldehyde. After that, the brains of mice were fixed with 4% paraformaldehyde for 24 h and gradually dehydrated with 15% and 30% sucrose solutions for 48 h, respectively. […]

[1] = system: Hsc70, LAMP2A, APP, PKM2, and HK2 proteins; experiment: Western blot of CMA proteins in PC12 cells (inhibitor experiment); type: cell-based; settings: TBG096 1 µM, 4 h, vs control
Description: In the inhibitor experiment of NGF-mimic activity, approximately 5 × 10^4 PC12 cells were seeded into each well of a 24-well plate and incubated for 24 h. After that, the medium in each well was replaced with 500 μL of serum-free DMEM or the serum-free DMEM containing VER155008, the inhibitor of Hsc70 protein, incubated in a CO2 incubator for 30 min. Subsequently, 500 μL of serum-free DMEM containing different samples was added and cultured, respectively. The PC12 cells with neurite outgrowth were recorded after 48 h. For the Western blot analysis, the experiment included five groups, namely the control (C) group, the NGF (40 ng/mL) group, the TBG096 (1 µM) group, the VER155008 (3 µM) group, and the VER155008 (3 µM) + TBG096 (1 µM) group. Afterwards, approximately 2 × 10^6 cells per dish were seeded into ten 6 cm Petri dishes with 5 mL of DMEM medium and incubated for 24 h. After giving different treatments with samples, the cells continued to culture for 4 h. Protein extraction was conducted to prepare for the subsequent Western blot analysis.
Approximately 50 mg of cerebral cortex from brain tissues was homogenized in RIPA lysis buffer containing 1% protease inhibitor and 1% phosphatase inhibitor. Then, the sample was centrifuged at 12,000 rpm at 4 °C for 10 min, and the supernatant was transferred to a new tube. Protein concentrations were determined using the BCA kit, and 30 µg of protein from each sample was denatured by heating in water at 100 °C for 10 min. Subsequently, approximately 30 µg of protein from each sample was loaded into each well. After conducting gel electrophoresis at 80 V for 15 min and then at 120 V for 60 min, the proteins were transferred to the polyvinylidene fluoride (PVDF) membrane for 90 min. Then, the PVDF membrane was blocked with 5% skimmed milk at room temperature for 60 min. The membrane was incubated with a diluted primary antibody at 4 °C overnight. After washing the membrane three times with TBST buffer (1× TBS buffer containing 0.05% (v/v) tween 20), it was incubated with the secondary antibody for 1 h at room temperature. Finally, the strip was developed using chemiluminescence ECL reagent, and the blot density was quantified with ImageJ (National Institutes of Health, Bethesda, MD, USA).

With O=C(SCCCCCCSCCCC(F)(F)F)c1cccc(O)c1O [TBG096] the “number of NeuN+ and BrdU+ neurons in the cerebral cortex” value (HFD-induced AD mice) was “increased numbers”, the “number of newborn neurons in the hippocampus” value (HFD-induced AD mice) was “elevated” and the HK2 protein expression [1] was “significantly decreased”. For the same compound, the APP protein expression ([1]; VER155008 3 µM) was “significantly decreased”, the Hsc70 protein level ([1]; VER155008 3 µM) was “significantly increased” and the LAMP2A protein level ([1]; VER155008 3 µM) was “significantly increased”. The PKM2 protein expression ([1]; VER155008 3 µM) was “significantly decreased”.
